Experimental data taken from the supplement of paper PMC10307832.

What was measured:
Experiment in all cases: relative viability (nuclei count vs DMSO), 5 days (fraction); higher = more cells survive
Vorinostat + Linsitinib = compound: O=C(CCCCCCC(=O)Nc1ccccc1)NO [Vorinostat] + C[C@]1(O)C[C@@H](c2nc(-c3ccc4ccc(-c5ccccc5)nc4c3)c3c(N)nccn32)C1 [Linsitinib] (partner 1 µM)
Outline: (§1)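 Lung cancer cell lines were seeded in 1536-well plates and dosed by pin tool the next day, with either a single drug or a fixed anchor-drug dose combined with five library-drug doses (not always all listed) spaced in √10 steps. Five days later, one step fixed the cells and stained their nuclei (final 0.05% Triton X-100, 1% formaldehyde, 1 ug/ml Hoechst), and nuclei were counted on 4× images. Relative viability is the nuclei count in treated wells divided by the count in vehicle wells, and each value is the median of duplicate plates.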

Vorinostat + Luminespib = compound: O=C(CCCCCCC(=O)Nc1ccccc1)NO [Vorinostat] + CCNC(=O)c1noc(-c2cc(C(C)C)c(O)cc2O)c1-c1ccc(CN2CCOCC2)cc1 [Luminespib] (partner 0.01 µM)
Outline: as §1

Vorinostat + AZD7762 = compound: O=C(CCCCCCC(=O)Nc1ccccc1)NO [Vorinostat] + NC(=O)Nc1cc(-c2cccc(F)c2)sc1C(=O)N[C@H]1CCCNC1 [AZD7762] (partner 0.2 µM)
Outline: as §1

Vorinostat + Crizotinib = compound: O=C(CCCCCCC(=O)Nc1ccccc1)NO [Vorinostat] + C[C@@H](Oc1cc(-c2cnn(C3CCNCC3)c2)cnc1N)c1c(Cl)ccc(F)c1Cl [Crizotinib] (partner 1 µM)
Outline: as §1

Vorinostat + Olaparib = compound: O=C(CCCCCCC(=O)Nc1ccccc1)NO [Vorinostat] + O=C(c1cc(Cc2n[nH]c(=O)c3ccccc23)ccc1F)N1CCN(C(=O)C2CC2)CC1 [Olaparib] (partner 8 µM)
Outline: as §1

Cell Line	relative viability (Vorinostat + Linsitinib; first compound 0.8 µM)	relative viability (Vorinostat + Linsitinib; first compound 2.53 µM)	relative viability (Vorinostat + Linsitinib; first compound 8 µM)	relative viability (Vorinostat + Luminespib; first compound 0.253 µM)	relative viability (Vorinostat + Luminespib; first compound 0.8 µM)	relative viability (Vorinostat + Luminespib; first compound 2.53 µM)	relative viability (Vorinostat + Luminespib; first compound 8 µM)	relative viability (Vorinostat + AZD7762; first compound 0.253 µM)	relative viability (Vorinostat + AZD7762; first compound 0.8 µM)	relative viability (Vorinostat + AZD7762; first compound 2.53 µM)	relative viability (Vorinostat + AZD7762; first compound 8 µM)	relative viability (Vorinostat + Crizotinib; first compound 0.8 µM)	relative viability (Vorinostat + Crizotinib; first compound 2.53 µM)	relative viability (Vorinostat + Crizotinib; first compound 8 µM)	relative viability (Vorinostat + Olaparib; first compound 0.253 µM)	relative viability (Vorinostat + Olaparib; first compound 0.8 µM)	relative viability (Vorinostat + Olaparib; first compound 2.53 µM)	relative viability (Vorinostat + Olaparib; first compound 8 µM)	relative viability (Vorinostat + Linsitinib; first compound 0.253 µM)	relative viability (Vorinostat + Crizotinib; first compound 0.253 µM)
LCLC-97TM1	0.167	0.144	0.115	0.819	0.704	0.299	0.122	0.129	0.256	0.205	0.0628	0.328	0.157	0.11	0.455	0.429	0.19	0.0482	–	–
CAL-12T	0.759	0.563	0.147	0.555	0.464	0.383	0.134	0.639	0.603	0.337	0.162	0.443	0.207	0.0708	0.82	0.824	0.532	0.138	0.923	0.901
A-427	1.08	0.875	0.17	1.03	0.892	0.339	0.158	0.67	0.459	0.239	0.156	0.847	0.274	0.096	0.71	0.789	0.468	0.21	1.11	0.954
NCI-H1755	1.05	0.512	0.188	0.442	0.661	0.572	0.166	0.478	0.402	0.276	0.163	0.883	0.233	0.154	0.953	0.86	0.307	0.205	1.07	0.942
LXF-289	0.994	0.391	0.108	0.763	0.596	0.299	0.0958	1.14	1.09	0.344	0.0727	0.76	0.273	0.0737	1.11	1.02	0.148	0.0576	1.03	0.904
NCI-H838	1.08	0.459	0.172	0.287	0.207	0.199	0.118	0.998	1	0.628	0.609	0.76	0.241	0.105	0.87	0.785	0.222	0.153	1.19	0.986
NCI-H1666	0.707	0.33	0.227	1.16	0.894	0.477	0.339	0.778	0.826	0.461	0.322	0.713	0.244	0.22	0.669	0.755	0.512	0.475	0.864	0.788
LC-2-ad	0.606	0.13	0.136	1.11	0.918	0.367	0.208	0.867	0.632	0.226	0.159	0.361	0.268	0.178	0.706	0.541	0.267	0.19	0.868	0.368
LK-2	0.328	0.143	0.0894	0.207	0.171	0.152	0.132	0.334	0.373	0.126	0.0415	0.237	0.175	0.0931	0.705	0.62	0.309	0.0471	0.58	0.227
LOU-NH91	0.901	0.547	0.338	0.376	0.417	0.329	0.283	0.757	0.739	0.548	0.414	0.746	0.599	0.362	0.959	0.832	0.587	0.404	1.1	0.755
NCI-H1792	0.376	0.148	0.0672	0.533	0.388	0.295	0.144	0.568	0.29	0.0683	0.0252	0.983	0.826	0.0888	0.235	0.218	0.0385	0.0192	0.57	0.966
EPLC-272H	1.13	0.361	0.156	0.497	0.195	0.273	0.158	0.135	0.171	0.069	0.138	0.774	0.346	0.178	0.827	0.565	0.2	0.13	1.17	0.875
H3255	0.941	0.589	0.247	0.743	0.808	0.602	0.315	0.989	0.923	0.507	0.279	0.817	0.411	0.225	0.588	0.52	0.326	0.222	1.01	1.02
RERF-LC-KJ	0.855	0.694	0.168	1.22	0.883	0.308	0.278	1.06	0.977	0.379	0.211	0.744	0.448	0.156	0.826	0.715	0.228	0.266	0.983	0.813
NCI-H647	0.959	0.294	0.0525	0.0999	0.146	0.222	0.0619	0.406	0.333	0.0641	0.0356	0.591	0.178	0.0502	0.694	0.201	0.0618	0.0259	1.24	1.15
NCI-H1915	1.03	0.587	0.113	0.792	0.761	0.18	0.0892	0.692	0.673	0.377	0.102	0.847	0.248	0.0881	0.231	0.175	0.113	0.0841	1.12	0.985

Cell Line	relative viability (Vorinostat + Linsitinib; first compound 0.8 µM)	relative viability (Vorinostat + Linsitinib; first compound 2.53 µM)	relative viability (Vorinostat + Linsitinib; first compound 8 µM)	relative viability (Vorinostat + Luminespib; first compound 0.253 µM)	relative viability (Vorinostat + Luminespib; first compound 0.8 µM)	relative viability (Vorinostat + Luminespib; first compound 2.53 µM)	relative viability (Vorinostat + Luminespib; first compound 8 µM)	relative viability (Vorinostat + AZD7762; first compound 0.253 µM)	relative viability (Vorinostat + AZD7762; first compound 0.8 µM)	relative viability (Vorinostat + AZD7762; first compound 2.53 µM)	relative viability (Vorinostat + AZD7762; first compound 8 µM)	relative viability (Vorinostat + Crizotinib; first compound 0.8 µM)	relative viability (Vorinostat + Crizotinib; first compound 2.53 µM)	relative viability (Vorinostat + Crizotinib; first compound 8 µM)	relative viability (Vorinostat + Olaparib; first compound 0.253 µM)	relative viability (Vorinostat + Olaparib; first compound 0.8 µM)	relative viability (Vorinostat + Olaparib; first compound 2.53 µM)	relative viability (Vorinostat + Olaparib; first compound 8 µM)	relative viability (Vorinostat + Linsitinib; first compound 0.253 µM)	relative viability (Vorinostat + Crizotinib; first compound 0.253 µM)
NCI-H2087	1.03	0.474	0.159	0.226	0.148	0.157	0.127	1.35	1.04	0.498	0.102	0.727	0.236	0.177	0.717	0.52	0.13	0.069	0.974	0.838
NCI-H2126	0.68	0.456	0.224	0.832	0.977	0.403	0.175	0.999	0.989	0.774	0.208	1.01	0.538	0.203	0.885	0.905	0.391	0.196	0.581	0.961
NCI-H727	0.351	0.15	0.289	0.25	0.378	0.311	0.341	0.514	0.874	0.617	0.398	0.687	0.299	0.214	0.682	0.745	0.525	0.401	0.236	0.962
LU99A	0.465	0.27	0.117	0.291	0.26	0.141	0.121	0.279	0.198	0.15	0.0946	0.44	0.236	0.146	0.232	0.177	0.104	0.101	0.429	0.523
NCI-H23	0.711	0.21	0.124	0.197	0.25	0.191	0.164	0.174	0.13	0.0979	0.0915	0.381	0.102	0.116	0.317	0.239	0.0822	0.084	0.866	0.525
ABC-1	0.505	0.331	0.106	1.19	0.284	0.239	0.187	0.875	0.587	0.309	0.125	0.383	0.131	0.0777	1.02	1.3	0.78	0.196	1	1.11
NCI-H1993	0.861	0.575	0.614	0.874	0.831	0.656	0.4	0.817	0.672	0.384	0.312	0.932	0.531	0.653	0.919	1.02	0.556	0.383	0.836	0.836
NCI-H3122	1.05	0.605	0.142	0.0783	0.0802	0.0456	0.0728	1.17	1.06	0.246	0.0864	0.317	0.227	0.198	0.543	0.574	0.319	0.0668	1.12	0.311
HCC-15	0.917	0.514	0.0962	0.526	0.565	0.361	0.148	1.39	1.11	1.06	0.363	0.879	0.496	0.0884	0.672	0.631	0.35	0.106	0.87	0.919
NCI-H2347	0.982	0.766	0.306	0.608	0.333	0.221	0.192	0.595	0.696	0.456	0.226	0.715	0.379	0.283	0.575	0.633	0.401	0.241	0.992	0.793
201T	0.932	0.825	0.363	1.1	1.09	0.82	0.281	0.527	0.595	0.495	0.197	1.03	1.02	0.317	0.852	0.814	0.523	0.255	1.04	1.12
BEN	0.543	0.156	0.0466	0.454	0.176	0.223	0.0986	0.645	0.661	0.439	0.125	0.553	0.147	0.0454	1.15	0.791	0.281	0.1	0.985	1.06
NCI-H1355	0.707	0.451	0.139	0.894	0.681	0.383	0.184	0.892	0.595	0.394	0.15	0.963	0.398	0.138	0.797	0.565	0.211	0.128	0.917	1.19
PC-14	0.911	0.323	0.112	0.128	0.143	0.113	0.133	0.33	0.288	0.106	0.0453	0.865	0.215	0.0683	0.351	0.197	0.064	0.0386	1.01	0.888
NCI-H1975	0.8	0.294	0.145	0.286	0.202	0.147	0.16	0.791	0.641	0.272	0.197	0.679	0.174	0.134	0.9	0.593	0.249	0.125	0.987	1.04
HCC-827	1.04	0.837	0.21	0.655	0.641	0.257	0.168	0.181	0.321	0.215	0.178	0.964	0.581	0.174	0.776	0.632	0.344	0.15	1.01	0.97
